Source: US9796984B2, “Protection against herbivores” (priority 2004, dated 2017)
pKi: −log10 of the molar value. Like-named read-outs stand apart in the source and are kept apart here.

Legend:
LeARG2 [1] = test: RNA blot analysis of LeARG2 transcripts in treated tomato leaves; design: species or system Lycopersicon esculentum (tomato); settings: in vivo
LeARG1 [2] = test: RNA blot analysis of LeARG1 transcripts in treated tomato leaves; design: species or system Lycopersicon esculentum (tomato); settings: in vivo
LeARG1 [3] = test: Substrate specificity of tomato arginases (urea detection), recombinant LeARG1; assay type: biochemical, Lycopersicon esculentum (tomato); settings: 250 mM substrate; for Activity: 50 mM CHES pH 9.6, 2 mM MnCl2, 37° C., 30 min, mean and SD of triplet reactions; for activity relative to that obtained with L-arginine: pH 9.6
LeARG2 [4] = test: Substrate specificity of tomato arginases (urea detection), recombinant LeARG2; assay type: biochemical, Lycopersicon esculentum (tomato); settings: 250 mM substrate; for Activity: 50 mM CHES pH 9.6, 2 mM MnCl2, 37° C., 30 min, mean and SD of triplet reactions; for activity relative to that obtained with L-arginine: pH 9.6
Bovine arginase = biological target: T1, Bovine arginase (Bos taurus, UniProt Q2KJ64); test: Substrate specificity (urea detection), bovine arginase; assay type: biochemical; settings: 250 mM substrate; for Activity: 50 mM CHES pH 9.6, 2 mM MnCl2, 37° C., 30 min, mean and SD of triplet reactions; for activity relative to that obtained with L-arginine: pH 9.6
T1 sequence (Q2KJ64 1-322): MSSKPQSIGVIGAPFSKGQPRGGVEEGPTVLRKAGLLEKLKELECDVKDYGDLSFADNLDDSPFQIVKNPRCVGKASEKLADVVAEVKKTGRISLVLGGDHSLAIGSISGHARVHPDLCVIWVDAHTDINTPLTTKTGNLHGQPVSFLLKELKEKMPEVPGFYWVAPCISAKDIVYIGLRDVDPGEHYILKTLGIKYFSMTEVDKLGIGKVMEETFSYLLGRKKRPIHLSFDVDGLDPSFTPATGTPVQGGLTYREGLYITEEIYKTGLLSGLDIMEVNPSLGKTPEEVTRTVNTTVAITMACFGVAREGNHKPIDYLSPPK

LeARG1 [5] = test: Effect of various compounds on arginase activity, LeARG1; assay type: biochemical, Lycopersicon esculentum (tomato)
Description: (§1) Homogenates were centrifuged at 20,000×g for 10 min at 4° C., and the supernatants were used as the enzyme source. Recombinant LeARG enzyme was prepared as described above. Protein concentrations were determined as described above. Arginase activity was measured with a spectrophotometric assay for detection of urea (Alabadi et al., Plant Physiol. 112:1237-1244 (1996)), with minor modifications. The enzyme solution was activated with 1 mM MnCl2 at 37° C. for 60 min. […] Reactions were carried out at 37° C. for 20 min and stopped by the addition of 500 μl of 15% (v/v) perchloric acid. A 200-μl aliquot was mixed vigorously with 3 ml of acid mixture [9% (v/v) of phosphoric acid and 27% (v/v) of sulfuric acid] and 100 μl of 3% (w/v) α-isonitrosopropiophenone (Sigma) in 95% ethanol. This mixture was heated in a boiling water bath in the dark for 60 min and cooled for 10 min to room temperature. The OD540 was recorded on a Uvikon 933 spectrophotometer (Research Instruments, San Diego, Calif.). Substrate specificity tests were performed as described above with the exception that agmatine and other related compounds were added in place of L-arginine, to a final concentration of 250 mM. Substrates tested were obtained from Sigma. […] Inhibitor studies were conducted with test compounds that were dissolved in water and then diluted into the assay buffer at various concentrations prior to addition of enzyme. For example, 1 μl of a 5-mM L-NOHA stock was added to 489 μl of assay buffer, followed by addition of 10 μl of enzyme solution. The reaction was carried out as described above. L-NOHA was obtained from Cayman Chemical (Ann Arbor, Mich.). [table]

LeARG2 [6] = test: Effect of various compounds on arginase activity, LeARG2; assay type: biochemical, Lycopersicon esculentum (tomato)
Description: as §1

tomato arginase = test: Inhibition of tomato arginase by NOHA; assay type: biochemical, Lycopersicon esculentum (tomato)
Description: as §1, with “Mich.).” for “Mich.). [table]”

arginase activity = test: L-arginase activity in tomato leaf protein extracts; assay type: biochemical, Lycopersicon esculentum (tomato); settings: exogenous MeJA vapor
threonine deaminase (TD) [7] = biological target: T2, threonine deaminase (TD) (Solanum lycopersicum, UniProt P25306); assay type: biochemical; settings: midgut extracts of larvae grown on WT plants; Ile up to mM
T2 construct: from tissue; host or cells: desalted crude extracts of methyl-JA-treated tomato leaves, and of midgut content of M. sexta larvae reared on WT tomato
T2 sequence (P25306 52-418): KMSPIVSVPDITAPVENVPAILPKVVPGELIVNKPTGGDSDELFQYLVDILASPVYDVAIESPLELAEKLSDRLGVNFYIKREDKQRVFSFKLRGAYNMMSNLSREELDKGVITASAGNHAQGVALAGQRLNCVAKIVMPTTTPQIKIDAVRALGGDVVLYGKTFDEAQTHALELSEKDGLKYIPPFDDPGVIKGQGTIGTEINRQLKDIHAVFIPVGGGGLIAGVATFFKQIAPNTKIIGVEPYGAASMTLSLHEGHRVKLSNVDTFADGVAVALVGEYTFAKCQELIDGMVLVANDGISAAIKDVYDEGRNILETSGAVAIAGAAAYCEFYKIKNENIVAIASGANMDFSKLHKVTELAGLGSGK

threonine deaminase (TD) [8] = assay type: biochemical; settings: extracts of methyl-JA-treated tomato leaves
[9] = compound 5.0 mM, 25 mM L-arginine, % of control reaction
[10] = compound 0.2 mM, 25 mM L-arginine, % of control reaction

SMILES: CC[C@H]1C=C(C(=O)N[C@@]2(C(=O)O)C[C@@H]2CC)[C@H]2CCC(=O)[C@H]2C1 [COR, coronatine]
- LeARG2 expression in leaves (LeARG2 [1]): necessary and sufficient
- LeARG1 expression in leaves (LeARG1 [2]): not induced

SMILES: N=C(N)NOCC[C@H](N)C(=O)O [Canavanine]
- Activity (LeARG1 [3]): 3 ± 1 μmol/mg protein/h
- activity relative to that obtained with L-arginine (LeARG1 [3]): (<0.1%)
- Activity (LeARG2 [4]): 9 ± 1 μmol/mg protein/h
- activity relative to that obtained with L-arginine (LeARG2 [4]): (0.1%)
- Activity (Bovine arginase): 14 ± 2 μmol/mg protein/h
- activity relative to that obtained with L-arginine (Bovine arginase): (0.2%)

SMILES: N=C(N)NCCCCN [Agmatine]
- Activity (LeARG1 [3]): 40 ± 3 μmol/mg protein/h
- activity relative to that obtained with L-arginine (LeARG1 [3]): (0.5%)
- Activity (LeARG2 [4]): 41 ± 6 μmol/mg protein/h
- activity relative to that obtained with L-arginine (LeARG2 [4]): (0.6%)
- Activity (Bovine arginase): 12 ± 2 μmol/mg protein/h
- activity relative to that obtained with L-arginine (Bovine arginase): (0.2%)

SMILES: N=C(N)NCCCC[C@H](N)C(=O)O [Homoarginine]
- Activity (LeARG1 [3]): 1269 ± 2 μmol/mg protein/h
- activity relative to that obtained with L-arginine (LeARG1 [3]): (14%)
- Activity (LeARG2 [4]): 916 ± 16 μmol/mg protein/h
- activity relative to that obtained with L-arginine (LeARG2 [4]): (13%)

SMILES: CC(S)C(=O)O (centres unmarked) [2-Mercaptopropionate]
- Relative activity (%) (LeARG1 [5]; [9]): 38%
- Relative activity (%) (LeARG2 [6]; [9]): 38%

SMILES: NCCC[C@H](N)C(=O)O [L- Ornithine]
- Relative activity (%) (LeARG1 [5]; [9]): 72%
- Relative activity (%) (LeARG2 [6]; [9]): 88%

SMILES: O=C(O)CS [Mercaptoacetate]
- Relative activity (%) (LeARG1 [5]; [9]): 28%
- Relative activity (%) (LeARG2 [6]; [9]): 26%

SMILES: N=C(N)NCCC[C@@H](N)C(=O)O [D-Arginine]
- Activity (LeARG1 [3]): 195 ± 2 μmol/mg protein/h
- activity relative to that obtained with L-arginine (LeARG1 [3]): (2.2%)
- Activity (LeARG2 [4]): 250 ± 5 μmol/mg protein/h
- activity relative to that obtained with L-arginine (LeARG2 [4]): (3.6%)
- Activity (Bovine arginase): 32 ± 13 μmol/mg protein/h
- activity relative to that obtained with L-arginine (Bovine arginase): (0.5%)

SMILES: O=C(O)CCS [3 -Mercaptopropionate]
- Relative activity (%) (LeARG1 [5]; [9]): 24%
- Relative activity (%) (LeARG2 [6]; [9]): 26%

SMILES: OCCS [2-Mercaptoethanol]
- Relative activity (%) (LeARG1 [5]): 81%
- Relative activity (%) (LeARG2 [6]): 80%

SMILES: NC(=NCCC[C@H](N)C(=O)O)NO [L-NOHA, N^G-hydroxy-L-arginine]
- Relative activity (%) (LeARG1 [5]; [10]): 7%
- Relative activity (%) (LeARG2 [6]; [10]): 5%
- Ki lower than the Km for L-arginine (tomato arginase): more than 1000 fold
- mode of inhibition (tomato arginase; plant and non-plant arginases): competitive inhibitor
- pKi (tomato arginase; plant enzymes (LeARG1 and LeARG2)): ~4.85

SMILES: CC/C=C\CC1C(=O)CCC1CC(=O)OC (centres unmarked) [MeJA]
- arginase activity in leaves after treatment (arginase activity): increase
- LeARG2 expression in leaves (LeARG2 [1]): strongly elicited
- LeARG1 expression in leaves (LeARG1 [2]): low level

SMILES: N=C(N)NCCC[C@H](N)C(=O)O [L-Arginine]
- Activity (LeARG1 [3]): 8848 ± 177 μmol/mg protein/h
- activity relative to that obtained with L-arginine (LeARG1 [3]): (100%)
- Activity (LeARG2 [4]): 7016 ± 86 μmol/mg protein/h
- activity relative to that obtained with L-arginine (LeARG2 [4]): (100%)
- Activity (Bovine arginase): 6608 ± 351 μmol/mg protein/h
- activity relative to that obtained with L-arginine (Bovine arginase): (100%)

SMILES: CC[C@H](C)[C@H](N)C(=O)O [Ile, isoleucine]
- TD activity in the presence of Ile (threonine deaminase (TD) [7]): not significantly inhibited
- TD activity in the presence of Ile (threonine deaminase (TD) [8]): strongly inhibited
